# Reference: paper PMC4375495 (The Journal of Biological Chemistry, 2015)
# Key:
# [1] = target: T1, ΔABD-p110δ (Mus musculus, UniProt O35904); assay: Surface plasmon resonance binding assay (Biacore); set-up: species or system murine; details: for dissociation from the protein during the dissociation phase: idelalisib 0.12-30 nM, wortmannin 2 μM, 1-hour dissociation phase
# T1 construct: digested with the rTEV protease to remove the iSH2 and ABD domains; made in house
# T1 sequence (O35904 106-1043 limits assumed): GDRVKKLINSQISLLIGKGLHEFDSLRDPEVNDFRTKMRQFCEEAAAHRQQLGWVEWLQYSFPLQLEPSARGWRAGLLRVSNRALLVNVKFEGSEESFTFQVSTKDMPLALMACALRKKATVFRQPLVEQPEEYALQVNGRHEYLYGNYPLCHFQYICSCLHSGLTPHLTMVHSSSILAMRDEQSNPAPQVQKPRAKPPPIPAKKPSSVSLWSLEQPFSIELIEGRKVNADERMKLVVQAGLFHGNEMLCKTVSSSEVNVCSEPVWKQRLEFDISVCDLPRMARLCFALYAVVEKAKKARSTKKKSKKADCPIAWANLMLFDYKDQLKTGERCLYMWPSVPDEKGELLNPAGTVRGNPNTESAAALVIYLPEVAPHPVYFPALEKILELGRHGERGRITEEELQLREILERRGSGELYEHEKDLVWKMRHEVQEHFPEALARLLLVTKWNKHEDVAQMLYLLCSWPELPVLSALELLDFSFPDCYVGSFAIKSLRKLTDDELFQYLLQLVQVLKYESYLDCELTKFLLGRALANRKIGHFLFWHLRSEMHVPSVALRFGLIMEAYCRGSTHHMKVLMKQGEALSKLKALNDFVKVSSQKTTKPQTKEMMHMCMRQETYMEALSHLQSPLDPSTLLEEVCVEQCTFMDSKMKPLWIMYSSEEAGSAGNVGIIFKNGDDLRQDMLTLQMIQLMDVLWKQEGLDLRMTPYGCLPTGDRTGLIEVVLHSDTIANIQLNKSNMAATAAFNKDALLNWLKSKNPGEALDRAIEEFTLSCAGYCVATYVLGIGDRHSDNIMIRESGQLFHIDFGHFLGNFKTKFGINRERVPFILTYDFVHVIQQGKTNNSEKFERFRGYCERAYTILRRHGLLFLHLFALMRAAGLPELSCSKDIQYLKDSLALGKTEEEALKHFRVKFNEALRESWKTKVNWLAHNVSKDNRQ
# Procedure: ΔABD-p110δ was minimally biotinylated using a 1:1 molar ratio of protein to EZ-link sulfo-NHS-LC-LC-biotin (ThermoScientific; catalog no. 21338). […] Following incubation for 1 h at 4 °C, the mixture was desalted using a Zeba spin desalting column (ThermoScientific; catalog no. 89883) pre-equilibrated in Biacore running buffer (25 mM HEPES, pH 7.5, 150 mM NaCl, 5 mM MgCl2, 1 mM TCEP, 5% glycerol, 0.05% P20) to remove any unreacted biotin. […] Characterization of inhibitor binding and dissociation was performed using a Biacore T100 instrument and research grade series S CM5 sensor chips (GE Healthcare; catalog no. BR-1005-30). Before use, CM5 sensor chips were preconditioned using two 6-s pulses each of 100 mM HCl, 50 mM NaOH, 0.5% (w/v) SDS, and deionized H2O at a flow rate of 100 μl/min. Approximately 15,000 response units (RU) of neutravidin was immobilized on all four surfaces via standard amine-coupling chemistry (GE Healthcare; catalog no. BR-1000-50) in HBS-P buffer (10 mM HEPES, pH 7.4, 150 mM NaCl, 0.005% P20). Biotinylated protein was injected over separate flow cells to achieve capture levels ranging between 6,000 and 14,000 response units. Any remaining free sites on neutravidin were blocked with two 5-min pulses of 50 μM EZ-Link-Amine-PEG2-Biotin (ThermoScientific; catalog no. 21346) at a flow rate of 30 μl/min. […] Wortmannin was injected on a separate sensor chip at a concentration of 2 μM for an 8-min association phase and a 1-hour dissociation phase. At the end of each injection cycle, the injection needle and tubing were washed with 50% DMSO using the “extra wash” command. A five-point DMSO concentration series (ranging from 0.8% to 1.2% DMSO) was included to generate a calibration curve to correct for excluded volume effects. Sensorgrams were double-referenced and corrected for solvent effects using Scrubber 2.0c software (Biologic Software, Campbell, Australia) but fitted using both Scrubber and CLAMP software ([23]).
# The data were fitted using a mass transport model ([24], [25]). Three independent surfaces were globally fit for the association and dissociation rates ka and […], while floating the maximum binding response (Rmax) and mass transport (kt) constant for each surface. […] For wortmannin, only an off-rate analysis was performed.
# [2] = target: recombinant PI3Kδ (p110δ-p85α) (Mus musculus, UniProt O35904); assay: Competition of idelalisib with ATP (HTRF kinetic assay); type: biochemical, murine
# Procedure: After a 1-h preincubation period, PIP2 was added to a final concentration of 10 μM, and ATP was added at concentrations from 0 to 1.5 mM to initiate the reaction. After 45 min, the reactions were quenched with a stop solution from the assay kit. A detection solution was then added to each well, and the mixture was further incubated for 2 h. Time-resolved fluorescence was measured with a Tecan Infinite M1000 plate reader, using an excitation wavelength of 330 nm and emission wavelengths of 620 and 665 nm. The ratio of emission at 665 nm to that at 620 nm was used as the measure of reaction rate. […] Values of α ≫ 1 are indicative of competitive inhibition, values of α approximately equal to 1 imply noncompetitive inhibition, and values of α ≪ 1 are characteristic of uncompetitive inhibitors ([22]).
# [3] = tested on: broad panel of 351 kinases and 44 mutant kinases; assay: KINOMEscan kinase panel; type: binding; details: 10 μM idelalisib
# Procedure: The enzymatic activity of the class I PI3K isoforms was measured using a time-resolved FRET assay that monitors formation of the product PIP3, because it competes with fluorescently labeled PIP3 for binding to the GRP-1 pleckstrin homology domain protein. An increase in PIP3 product results in a decrease in time-resolved FRET signal as the labeled fluorophore is displaced from the GRP-1. […] After an assay reaction time of 30 min at 25 °C, reactions were terminated with a final concentration of 10 mM EDTA, 10 nM labeled PIP3, and 35 nM europium-labeled GRP-1 detector protein before reading time-resolved FRET on an Envision plate reader (excitation, 340 nm; emission, 615/665 nm; delay, 100 μs; and read window, 500 μs). […] All IC50 values represent geometric mean values of a minimum of four determinations. These assays generally produced results within 3-fold of the reported mean.
# [4] = target: PI3Kδ-p85α (Mus musculus, UniProt O35904); assay: Reversibility (dilution) assay; type: biochemical, murine; details: preincubation 1 h with 400 nM idelalisib or 100 nM wortmannin; 10 μM PIP2, 300 μM ATP
# Procedure: One microliter of solution was transferred to 99 μl of reaction buffer solution containing 10 μM PIP2 and 300 μM ATP to initiate the enzyme reaction. At 5-min intervals, samples from each reaction were quenched with HTRF stop solution, and fluorescence was measured using the detection kit as described above. The reactions were measured over a time frame of 40 min. […] The data were analyzed with linear least square fits to obtain reaction rates.
# [5] = target: PI3Kδ (murine p110δ-p85α) (Mus musculus, UniProt O35904); assay: biochemical
# Excerpt: All IC50 values represent geometric mean values of a minimum of four determinations.
# [6] = biotinylated p110δ captured on neutravidin, mass transport model, global fit
# Sequence of recombinant PI3Kδ (p110δ-p85α) (O35904 whole entry): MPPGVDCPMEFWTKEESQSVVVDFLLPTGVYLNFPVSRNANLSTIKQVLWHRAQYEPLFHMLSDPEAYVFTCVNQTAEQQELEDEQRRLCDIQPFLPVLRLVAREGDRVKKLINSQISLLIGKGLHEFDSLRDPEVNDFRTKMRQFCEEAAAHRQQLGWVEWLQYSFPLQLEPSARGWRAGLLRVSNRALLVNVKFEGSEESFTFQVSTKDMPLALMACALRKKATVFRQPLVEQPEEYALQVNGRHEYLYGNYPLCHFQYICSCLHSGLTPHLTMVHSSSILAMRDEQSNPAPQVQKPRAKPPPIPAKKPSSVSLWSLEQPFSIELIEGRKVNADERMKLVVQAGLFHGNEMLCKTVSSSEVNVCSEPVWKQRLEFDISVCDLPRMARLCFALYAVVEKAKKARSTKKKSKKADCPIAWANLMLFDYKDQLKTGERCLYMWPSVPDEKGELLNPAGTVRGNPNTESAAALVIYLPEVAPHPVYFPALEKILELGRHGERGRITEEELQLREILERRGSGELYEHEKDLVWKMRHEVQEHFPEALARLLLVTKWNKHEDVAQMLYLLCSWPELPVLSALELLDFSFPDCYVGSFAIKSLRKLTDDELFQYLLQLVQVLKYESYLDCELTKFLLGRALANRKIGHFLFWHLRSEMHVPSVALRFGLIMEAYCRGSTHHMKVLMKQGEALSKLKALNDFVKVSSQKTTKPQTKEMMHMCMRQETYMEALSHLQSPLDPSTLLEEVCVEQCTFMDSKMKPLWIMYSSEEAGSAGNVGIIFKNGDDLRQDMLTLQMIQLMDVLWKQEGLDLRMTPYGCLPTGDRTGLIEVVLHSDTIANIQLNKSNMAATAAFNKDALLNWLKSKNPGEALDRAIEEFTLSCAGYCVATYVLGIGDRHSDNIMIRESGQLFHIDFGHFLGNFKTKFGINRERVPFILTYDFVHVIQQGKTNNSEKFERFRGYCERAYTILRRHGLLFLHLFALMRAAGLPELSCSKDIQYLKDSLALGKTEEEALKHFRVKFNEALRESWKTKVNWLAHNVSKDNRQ
# Sequence of recombinant PI3Kδ (p110δ-p85α) (P27986 whole entry partner): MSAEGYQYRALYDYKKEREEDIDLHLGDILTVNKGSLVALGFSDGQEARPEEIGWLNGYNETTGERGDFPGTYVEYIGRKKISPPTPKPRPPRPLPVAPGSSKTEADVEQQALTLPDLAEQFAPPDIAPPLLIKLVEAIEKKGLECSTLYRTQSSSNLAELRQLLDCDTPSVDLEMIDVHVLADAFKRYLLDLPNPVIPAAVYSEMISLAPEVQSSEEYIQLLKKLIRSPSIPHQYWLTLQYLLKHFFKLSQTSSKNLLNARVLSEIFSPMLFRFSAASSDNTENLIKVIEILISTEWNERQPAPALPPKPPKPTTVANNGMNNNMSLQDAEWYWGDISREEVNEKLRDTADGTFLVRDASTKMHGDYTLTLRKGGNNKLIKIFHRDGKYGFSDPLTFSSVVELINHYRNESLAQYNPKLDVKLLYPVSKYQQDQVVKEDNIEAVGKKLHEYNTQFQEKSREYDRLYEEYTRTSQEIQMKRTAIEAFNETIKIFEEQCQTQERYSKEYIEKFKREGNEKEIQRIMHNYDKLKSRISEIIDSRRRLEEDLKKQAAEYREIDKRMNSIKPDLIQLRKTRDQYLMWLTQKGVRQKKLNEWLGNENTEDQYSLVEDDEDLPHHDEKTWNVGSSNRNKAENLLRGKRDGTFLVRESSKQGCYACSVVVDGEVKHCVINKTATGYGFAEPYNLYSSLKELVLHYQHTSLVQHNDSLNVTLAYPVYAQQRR
# Sequence of PI3Kδ-p85α (O35904 whole entry): as the sequence (O35904 whole entry) above
# Sequence of PI3Kδ-p85α (P27986 whole entry partner): as the sequence (P27986 whole entry partner) above
# Sequence of PI3Kδ (murine p110δ-p85α) (O35904 whole entry): as the sequence (O35904 whole entry) above
# Sequence of PI3Kδ (murine p110δ-p85α) (P27986 whole entry partner): as the sequence (P27986 whole entry partner) above
SMILES,"off rate kd [1, 6] [s⁻¹]","on rate ka [1, 6] [M⁻¹ s⁻¹]",dissociation from the protein during the dissociation phase [1],Ki ([2]; read-out: Ki (inhibition constant)) [nM],mode of inhibition (parameter α of the global fit) ([2]; α ≫ 1),most potent percent inhibition seen for any non-PI3K kinase [3] [%],recovery of enzyme activity following 1:100 dilution of the enzyme-inhibitor complex [4],IC50 [5] [nM]
"CC[C@H](Nc1ncnc2[nH]cnc12)c1nc2cccc(F)c2c(=O)n1-c1ccccc1 [Idelalisib, 5-fluoro-3-phenyl-2-[(1S)-1-(9H-purin-6-ylamino)propyl]quinazolin-4(3H)-one]",0.00634,5.18e+06,complete dissociation,1.5 ± 0.1,ATP-competitive inhibition,47,enzyme activity was quickly recovered,19
COC[C@H]1OC(=O)c2coc3c2[C@@]1(C)C1=C(C3=O)[C@@H]2CCC(=O)[C@@]2(C)C[C@H]1OC(C)=O [wortmannin],–,–,no dissociation after 1 h,–,–,–,did not show detectable recovery of activity upon dilution,–
